This note sets out measurements from patent US20220296718A1, “EXCIPIENT FOR BIOTHERAPEUTICS” (Ludwig-Maximilians-Universität München, priority 2019, published 2022).

Holding throughout (assay type): physicochemical
Data set [1] relates to IgG antibody trastuzumab. Put plainly: Particle formation after freezing/thawing stress of trastuzumab (flow imaging microscopy). To be noted: 50 mM phosphate buffer, pH 7.0; 5 mg/ml trastuzumab; 50 mM excipient; FIG. 1. As to the method: (§1) Production of Test Solutions: The buffer solution consisted of 50 mM sodium phosphate at pH 7.0. Protein stock solutions were liberated from other excipients by IEX chromatography to remove potential impurities and surfactants and by dialysis over 24 h in buffer solution 100-200 times of their volumes. The buffer solution was renewed after 3 hours and after 14 hours. Stock solutions of test excipients were produced by dissolving 500 mM of the excipient in 90% of the required amount of buffer solution. After that, the pH was adjusted and the remaining volume of buffer solution was added. Then, the solution was filtered with a 0.22 μm filter. The corresponding amount of protein stock solution was added. Sufficient homogenization was provided.
(§2) Freeze/Thaw-Cycle: The protein-containing solutions were filled into cleaned 2R vials and crimped. The samples were frozen from 20° C. to −50° C. in 3 cycles at a rate of 2K/min in a Christ 2D-6 freeze dryer and then thawed at room temperature until the entire sample had reached the liquid state, before the cycle was started again.
(§3) Flow Imaging Microscopy: 165 μl of the sample solution were measured at 10× magnification using a flow imaging microscope (FlowCam, Fluid Imaging Technologies, Inc., Scarborough, Me., USA).
(§4) The resulting solutions were subjected to freezing/thawing stress and stirring stress.

Data set [2] concerns IgG antibody trastuzumab. The data set can be described thus: Particle formation after stirring stress of trastuzumab (flow imaging microscopy). To be noted: 50 mM phosphate buffer, pH 7.0; 5 mg/ml trastuzumab; 50 mM excipient; 2 h at 200 rpm; FIG. 2. The procedure: as §1
Stirring Stress: The protein-containing solutions were filled into cleaned 2R vials and crimped. Afterwards, the samples were stirred for 2 h at 200 rpm with a magnetic stirrer (Variomag Poly 15, Thermofisher, 3 mm polytetrafluoroethylene—coated stirring bars).
as §3, §4

For a further data set, the target named is interferon-alpha-2a (Homo sapiens, UniProt P01563, R46K). Put plainly: Particle formation after freezing/thawing stress of interferon-alpha-2a. To be noted: 50 mM phosphate buffer, pH 7.0; 1 mg/ml interferon-alpha-2a; 50 mM excipient; FIG. 3. As to the method: as §1, §2, §3
The resulting solutions were subjected to freeze/thawing stress.

Data set [3] has as its system recombinant IgG antibody, either rituximab or omalizumab. Put plainly: Particles and turbidity (visual inspection) after freezing/thawing and stirring stress of rituximab or omalizumab. To be noted: 10 mg/ml rituximab or omalizumab, 20 mM histidine pH 6.0, 75 mM excipient; compared with trehalose, sucrose, or trehalose or sucrose with methionine. As to the method: as §1, with “of 20” for “of 50”, “mM histidine buffer” for “mM sodium phosphate at”, “pH 6.0.” for “pH 7.0.”, “excipients” for “excipients by IEX chromatography to remove potential impurities and surfactants and”, “after 6” for “after 3”, “after 20” for “after 14”
Freeze/Thaw-Cycle: The protein-containing solutions were filled into cleaned 6R vials and crimped. The samples were frozen from 20° C. to −70° C. in 5 cycles in a freezer and then thawed at room temperature until the entire sample had reached the liquid state, before the cycle was started again.
Stirring Stress: The protein-containing solutions were filled into cleaned 6R vials and crimped. Afterwards, the samples were stirred for 2 h at 200 rpm with a magnetic stirrer (Variomag Poly 15, Thermofisher, 5 mm polytetrafluoroethylene—coated stirring bars).
Visual inspection: 3 Vials of each formulation were visually inspected according to the method described in the European Pharmacopoeia. […]

In a further data set the target is T1, recombinant G-CSF (Homo sapiens, UniProt P09919).
T1 sequence (P09919 31-207): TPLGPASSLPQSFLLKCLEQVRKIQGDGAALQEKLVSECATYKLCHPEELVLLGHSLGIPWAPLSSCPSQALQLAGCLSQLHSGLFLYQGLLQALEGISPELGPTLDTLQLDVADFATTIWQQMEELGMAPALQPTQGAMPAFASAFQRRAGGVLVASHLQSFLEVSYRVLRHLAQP
Put plainly: Particles and turbidity after freezing/thawing and stirring stress of G-CSF. The conditions noted are these: 1 mg/ml G-CSF, 10 mM acetate pH 4.5, 50 mM excipient; compared with trehalose, sucrose, or trehalose or sucrose with methionine. The procedure:
(§5) The production of test solutions, the freeze/thaw-cycle, the measurement of stirring stress and the visual inspection were performed substantially as described in Example 4.
The buffer solution consisted of 10 mM acetate buffer pH 4.5 and was renewed after 4 hours and after 16 hours. For the freeze/thaw cycle and the measurements of stirring stress, 2R vials were used.
N,N,N′,N′-tetrakis-(2-hydroxyethyl) adipinic acid amide (Ark Pharm Inc.), D(+) trehalose (Sigma-Aldrich), sucrose, and mixtures of trehalose or sucrose with methionine (Sigma-Aldrich) respectively, was added as a test excipient to an aqueous solution containing recombinant G-CSF. […] In the case of sucrose or trehalose mixtures with methionine, the concentration of the sugar was 50 mM, and the concentration of methionine was 20 mM. The resulting solutions were subjected to freezing/thawing stress and stirring stress.

In the next data set the target is recombinant anakinra (Homo sapiens, UniProt P18510). Put plainly: Particles and turbidity after freezing/thawing and stirring stress of anakinra. To be noted: 50 mg/ml anakinra, 20 mM citrate pH 6.5, 50 mM excipient, freezing/thawing and 3 h stirring stress. As to the method: as §5
The buffer solution consisted of 20 mM citrate buffer pH 6.5. The samples were stirred for 3 h.
N,N,N′,N′-tetrakis-(2-hydroxyethyl) adipinic acid amide (Ark Pharm Inc.), D(+) or trehalose (Sigma-Aldrich), or polysorbate 80, was added as a test excipient to an aqueous solution containing recombinant anakinra. […] In the case of polysorbate 80 its concentration was 0.05%. The resulting solutions were subjected to freezing/thawing stress and stirring stress.

Data set [4] can be described thus: Solubility in water, classification of the European Pharmacopoeia. The procedure:
In certain embodiments, the diamide has a solubility in water of at least about 0.02% (w/v), of at least about 0.05% (w/v), of at least about 0.1% (w/v), of at least about 0.5% (w/v) or of at least about 1% (w/v) at 20° C., e.g. as determined by the column elution method according to the OECD Guidelines, Test No. 105. Preferably, the diamide is considered as soluble, well soluble or freely soluble according to the classifications of the European Pharmacopoeia, which is herein incorporated by reference.

Sequence of recombinant anakinra (P18510 with tags, fused parts or gaps): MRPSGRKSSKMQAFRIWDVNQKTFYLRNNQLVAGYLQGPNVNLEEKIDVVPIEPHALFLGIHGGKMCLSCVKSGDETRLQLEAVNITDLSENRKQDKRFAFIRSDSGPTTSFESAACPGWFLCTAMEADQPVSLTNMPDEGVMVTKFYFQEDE
Sequence of interferon-alpha-2a (P01563 24-188 R46K): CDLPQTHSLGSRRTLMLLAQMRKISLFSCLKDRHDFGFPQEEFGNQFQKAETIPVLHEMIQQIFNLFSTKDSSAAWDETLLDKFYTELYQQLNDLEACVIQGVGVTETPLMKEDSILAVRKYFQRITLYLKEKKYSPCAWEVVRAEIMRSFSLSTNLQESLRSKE

With `O=C(CCCCC(=O)N(CCO)CCO)N(CCO)CCO` [compound A, N,N,N′,N′-tetrakis-(2-hydroxyethyl) adipinic acid amide], the “Amount of particles after 3 freezing/thawing cycles” value with IgG antibody trastuzumab [1] is reported as “less particles than formulations comprising standard excipients like, glycerol, NaCl, or D(+) trehalose or formulations without any excipients”. In addition, the “Amount of particles after stirring stress” value with IgG antibody trastuzumab [2] is “less particles than formulations comprising standard excipients like, glycerol, NaCl, or D(+) trehalose or formulations without any excipients”. Further, on interferon-alpha-2a, the “Amount of particles after 3 freezing/thawing cycles” value is “less particles than formulations without any excipient and formulations with arginine or polysorbate 20”. Also, in data set [3], the “Particles in stressed formulations” value is “less particles” and the “Turbidity of stressed formulations” value is given as “less turbid”. On recombinant G-CSF, the “Particles in stressed formulations” value was “less particles” and the “Turbidity of stressed formulations” value is on record as “less turbid”. In addition, on recombinant anakinra, the “Particles in stressed formulations, compared with trehalose” value is “less particles” and the “Turbidity of stressed formulations, compared with trehalose” value is “less turbid”. On recombinant anakinra (polysorbate 80 at 0.05%), the “Particles in stressed formulations, compared with polysorbate 80” value is “about equally low amounts of particles” and the “Turbidity of stressed formulations, compared with polysorbate 80” value was “about equally low in turbidity”. The “Solubility according to the classification of the European Pharmacopoeia” value in data set [4] is “well soluble”.
As to Polysorbate 20 [reference compound], in the data set on IgG antibody trastuzumab [1], the “Amount of particles after 3 freezing/thawing cycles” value is recorded as “even less particles”.
